Laboratory results taken from a melting point compilation (Tetko et al.; mined from patent text by program, amines drawn as free bases though some values may be those of a salt).

Row | melting point | Structure (SMILES)
1 | 160 to 162 °C | O=S(=O)(Nc1ncnc(OCCO)c1-c1ccc(Cl)cc1)c1ccc(C(F)(F)F)cc1
2 | 135 to 137 °C | CC1=C(C)CC2C(C1)C(=O)NS2=O (centres undefined)
3 | 210 °C | C[C@H]1CN(C(c2ccccc2)(c2ccccc2)c2ccccc2)CCN1c1ccc(C(F)(F)F)c(Cl)n1
4 | 110 to 112 °C | O=C(CC1CCN(Cc2ccccc2)CC1)c1ccc(N2CCCC2)cc1
5 | 211 to 212 °C | COC(=O)c1cccn1-c1cc2[nH]c(=O)c(=O)n(C3CCCCC3)c2cc1[N+](=O)[O-]
6 | 173 to 174 °C | CCOCc1nc2c(N)nc3ccccc3c2n1CC1CCN(C)O1 (centres undefined)
7 | 164 °C | CC(C)=CC(=O)N[C@H]1CC[C@H](CCN2CCN(c3nccc4c3CCO4)CC2)CC1
8 | 136 to 139 °C | O=C1CCN(C(=S)Nc2ccc(Cl)cc2)N1c1ccccc1
9 | 119 to 120 °C | Cc1cccc(N2CCC(N)=N2)c1
10 | 229 to 230 °C | O=[N+]([O-])c1cn2c(n1)O[C@@H](COc1ccc(N3CCN(Cc4ccc(Oc5ccc(C(F)(F)F)cn5)cc4)CC3)cc1)CC2
11 | 198 to 199 °C | Cc1oc(-c2ccc(F)cc2)cc1C(=O)Nc1cccc(CSCC(=O)O)c1
12 | 204 to 205 °C | CN(c1cccc2cc(-c3ncc(CCl)s3)[nH]c12)S(=O)(=O)c1cccs1
13 | 60 °C | CC(=O)NCCC1CCNCC1
14 | 136 to 138 °C | COc1ccc(N2N=C3c4cc(C)sc4CCCC3CC2=O)cc1 (centres undefined)
15 | 103 to 104 °C | CC(=O)O[C@H]1C[C@@H](n2cnc3c(Cl)ncnc32)[C@H](O)[C@@H]1O (racemic)
16 | 110 to 111 °C | O=C(O)Cc1cnn(-c2ccc(Cl)cc2)c1-c1ccccc1
17 | 247 to 248 °C | CCCC(=O)c1cnc2c(OC)cccc2c1Nc1c(C)cc(O)cc1C
18 | 275 °C | O=C1CN2Cc3cc(C(=O)c4cccnc4)ccc3N=C2N1
19 | 250 to 252 °C | CS(=O)c1nccc(-c2nc(=O)c3ccccc3s2)n1 (centres undefined)
20 | 171 to 173 °C | COc1ccc2c(c1)[C@@]1(C(=O)O)CCCC[C@H]1CC2 (relative stereo)
21 | 165 to 167 °C | NC(=S)c1ccc([N+](=O)[O-])cc1
22 | 207 to 208 °C | O=C1CN(Cc2ccccc2)C(=O)[C@@H](Cc2c[nH]c3ccccc23)N1
23 | 194 to 195 °C | COc1ccc(CNc2nc(N)nc3c2ncn3C2CC(F)C(CO)O2)cc1 (centres undefined)
24 | 172 to 173 °C | Cc1cc(Br)cnc1CCCCNc1ncc(Cc2ccc(F)cc2)c(=O)[nH]1

Row | melting point | Structure (SMILES)
25 | 166 to 167 °C | CS(=O)(=O)c1ccc(C2=C(c3ccc(F)cc3)C(=O)OC2)cc1
26 | 83 to 85 °C | COC1=C(OC)C(=O)C(CCCCCCCCCC(=O)N[C@@H](CCSC)C(=O)O)=C(C)C1=O
27 | 79 to 86 °C | CCCCc1oc2ccccc2c1C(=O)N(C)Cc1ccc(-c2ccc(OC(Cc3ccccc3)C(=O)O)c(Br)c2)cc1 (centres undefined)
28 | 160 to 161 °C | Cc1c(OCC(F)(F)F)ccnc1CSc1nc2cc(N3CCCCC3)c(F)cc2[nH]1
29 | 76 to 78 °C | C=CCON=C(C)c1cccc(Oc2nc(OC)cc(OC)n2)c1C(=O)OC
30 | 67 to 69 °C | Nc1nc(OC(F)F)cc(OC(F)F)n1
31 | 87 to 89 °C | O=C(O)Cc1ccc(Oc2ccc(F)cc2)cc1
32 | 260 to 265 °C | CN1CCC(c2ccc(Nc3cc(-c4cccc(-n5ncc6cc(C(C)(C)C)cc(F)c6c5=O)c4CO)nn(C)c3=O)nn2)CC1
33 | 186 to 189 °C | CC(C)(C)c1cc(CCc2ccccc2NC(=O)N2CCOCC2)cc(C(C)(C)C)c1O
34 | 70 °C | CC(=O)OC1CSC(Oc2cccnc2-c2cccnc2)C(OC(C)=O)C1OC(C)=O (centres undefined)
35 | 68 to 70 °C | CCCCCCCCCCCCCCCCCCOc1cc(OCCCCC(=O)OC)cc(C(=O)O)c1
36 | 242 to 243 °C | Cc1ccc(S(=O)(=O)c2ccc3c(c2)[C@@H](N2CCCC2=O)[C@H](O)C(C)(C)O3)cc1 (relative stereo)
37 | 102 to 105 °C | COc1cc(N)c(Cl)cc1C(=O)NCC1CCN(CCCCSc2ccccc2)CC1
38 | 90 °C | CN(C)CCOc1ccccc1CC(=O)N1C[C@@H]2C(=O)CCC(c3ccccc3)(c3ccccc3)[C@@H]2C1 (racemic)
39 | 148 to 150 °C | [N-]=[N+]=C1c2cc(F)ccc2-c2ccc(F)cc21
40 | 153 to 155 °C | COc1ccc(N2CCN(c3c(C)c(C)c4c(c3C)CC3(CCOCC3)O4)CC2)cc1
41 | 143 to 146 °C | COc1cc(OCc2ccccn2)ccc1/C=C/c1cc(/C=C/c2ccccc2)[nH]n1
42 | 190 to 192 °C | CC(C)(C)CCC/C(=C\c1ccc(C(=O)O)cc1)Cn1ccnc1
43 | 192 to 193 °C | NS(=O)(=O)c1ccc(-c2ccccc2-c2ccc(F)c(Cl)c2)cc1
44 | 244 °C | O=C(c1[nH]ncc1-c1csc(Nc2ncccn2)n1)C1CC1
45 | 152 to 154 °C | CNC(=S)NC(c1ccccc1)c1ccccc1
46 | 152 °C | Cc1nccc2c3ccc(OCC4CCCCC4)cc3n(CC3CCCCC3)c12
47 | 208 to 209 °C | Cc1cc(C(F)(F)C(F)(F)F)ccc1NC(=O)c1ccc(Cl)c(Cl)c1C(=O)NC(C)C
48 | 115 to 117 °C | CN(C)CCSc1cc(NC(=O)OC(C)(C)C)c(N)cc1C#Cc1ccccc1

Row | melting point | Structure (SMILES)
49 | 115 °C | CC(C)Cc1ccc(C(C)COC(=O)c2cc(O)c3c(c2)C(=O)c2cccc(O)c2C3=O)cc1 (centres undefined)
50 | 129 °C | Cc1ccc(CCN2CCN(c3nsc4ccccc34)CC2)c2c1C(C)(C)CC(=O)N2
51 | 80 to 81 °C | CN(Cc1cnn(C)c1)c1ccc(Br)cc1C=O
52 | 188 to 191 °C | CC(C)(C)OC(=O)Nc1sc(-c2cncc(F)c2)nc1F
53 | 248 to 250 °C | CC(C)Cn1c(CNC(=O)OC(C)(C)C)c(-c2cccs2)c2cc(C(N)=O)ccc2c1=O
54 | 120 to 121 °C | O=C(Nc1ccc2c(c1)C(=O)CCCC2)OCc1ccccc1
55 | 163 to 165 °C | COc1ccc(N2CCN(c3ccc(OC)nc3-c3ccc(OC)cc3CO)CC2)cc1
56 | 178 to 179 °C | CCc1nsc(NC(=O)C(C)c2ccc3oc(-c4c(F)cccc4Cl)nc3c2)c1Cl (centres undefined)
57 | 125 to 127 °C | CCCOC(=O)Nc1nc2ccccc2c2c1nc(COCC)n2CC(C)(C)NS(C)(=O)=O
58 | 126 °C | Cc1cccc(CC(=O)c2ccnc(Br)c2)n1
59 | > 280 °C | CS(=O)(=O)c1c(C(=O)NN=Cc2ccc(Cl)cc2)[nH]c2ccccc12
60 | 159 to 162 °C | CCn1c(C)c(I)c(=O)n(CC)c1=O
61 | 160 to 161 °C | c1ccc(-c2nc(COc3cccc(Cc4nnn[nH]4)c3)cs2)cc1
62 | 217 to 218 °C | C=C(C)C(=O)NCC(=O)Nc1cc(Cl)c(C)c(Cl)c1O
63 | 114 to 115 °C | CCOc1cc([N+](=O)[O-])ccc1C(O)c1cc(C)ccn1 (centres undefined)
64 | 192 to 194 °C | CCCCc1ncc(/C=C(\Cc2cccs2)C(=O)O)n1Cc1ccc(OCC(=O)O)cc1
65 | 112 to 114 °C | CC(=CCO)c1ccc(-c2ccccc2)cc1
66 | 118 to 120 °C | CCOC(=O)CC(C(=O)c1ccc(OC2CCN(C(=O)OC(C)(C)C)CC2)cc1)c1ccccn1 (centres undefined)
67 | 98 to 101 °C | Nc1ccc(-c2ncc(NC(=O)OCc3ccccc3)c(=O)n2CC(=O)NC(Cc2ccccc2)C(=O)C(F)(F)F)cc1 (centres undefined)
68 | 148 °C | Fc1ccc(-c2ncc(Br)cn2)cc1F
69 | 149 to 159 °C | CCOC(=O)c1cnc2c(NC(=O)c3c(Cl)cccc3Cl)cccc2c1CC(=O)O
70 | 52 to 54 °C | NC(=O)OCC1COC(C(F)(F)F)(C(F)(F)F)O1 (centres undefined)
71 | 73 to 74 °C | COC(=O)c1cc(I)ccn1
72 | > 270 °C | Cn1ncc2[nH]c3ccc(Cc4cccc(O)c4)cc3c(=O)c21

Row | melting point | Structure (SMILES)
73 | 98 to 100 °C | CC1CCC(Oc2cc(F)cc(C(=O)Nc3ccc(OCCN4CCOCC4)c4ccccc34)c2)CC1 (centres undefined)
74 | 146 to 155 °C | CN(C(=O)CNC(=O)OC(C)(C)C)c1ccc(OCC(=O)O)cc1
75 | 28 to 29 °C | CCCCCCCCCCCCCCOc1ccc(CC(CO)CC2(C)OCCO2)cc1 (centres undefined)
76 | 90 °C | COc1ccc(Cn2cnc3c(Cl)nc(F)nc32)cc1
77 | 77 to 79 °C | COc1cc2c(cc1Nc1ncc(Cl)c(Nc3ccccc3S(=O)(=O)N(C)C)n1)CCN(CCOC(=O)CN)CC2
78 | 66 to 68 °C | COCCNC(=O)c1ccc(SC)c(N)c1
79 | 269 °C | Nc1nc2c(ncn2[C@H]2CC[C@@H](CO)C2)c(=O)[nH]1
80 | 143 to 144 °C | COC(=O)c1ccccc1CC(=O)Nc1cccc(/C=C/c2nc(C3CCC3)cs2)c1
81 | 190 to 194 °C | Cc1nc2c(n1C)CC(C(=O)N(C)C)CC2=O (centres undefined)
82 | 118 to 121 °C | CCOC(=O)c1cn(C(C)c2c(F)cccc2F)nn1 (centres undefined)
83 | > 240 °C | Cc1cc(C(=O)O)cc2c1[nH]c1ccccc12
84 | 192 °C | CCOC(=O)c1c(C(F)(F)F)nc2ccccc2c1O
85 | 84.5 to 86 °C | CN(O)C(=O)NCCc1cccc(Oc2ccccc2)c1
86 | 107 to 110 °C | CN1Cc2nnnn2-c2ccccc21
87 | 113 to 115 °C | CC(C)CCOCc1cc(-n2nc(C(N)=O)nc2-c2ccccc2F)ccc1Cl
88 | 99 to 100 °C | CCOC(C#N)NC(=O)c1ccc(COC)cc1 (centres undefined)
89 | 235 °C | CSc1ccc(C(=O)Nc2ccc3ccc(Cl)nc3n2)s1
90 | 33 to 35 °C | CCCCCCCCCCCCc1ccc(S(=O)(=O)Cl)cc1
91 | 96 to 97 °C | COc1ccc(-c2nc(COc3ccc(CCCn4ccnc4)cc3)co2)s1
92 | 159 to 161 °C | CC(C)(C)OC(=O)NC(COc1noc2ccc(Cl)cc12)Cc1cc(O)no1 (centres undefined)
93 | 103 to 104 °C | Cc1ccc(OCc2nc(-c3ccccc3)oc2C)cn1
94 | 186 °C | Cc1nc(NC(=O)C2c3ccccc3Oc3ccccc32)no1
95 | 131 to 133 °C | O=C1Cc2ccc(F)cc2Sc2cc(F)c(Cl)cc21
96 | 212 °C | O=C(Cc1ccc2c(c1)OCO2)N[C@H]1CC[C@H](CCN2CCN(c3nccc4c3CCO4)CC2)CC1

Row | Structure (SMILES) | melting point
97 | NC1=Nc2ccc([N+](=O)[O-])cc2C(c2ccccc2Cl)=NC1 | 222 to 224 °C
98 | COc1ccc(CCN(C)C)c2[nH]c(=O)[nH]c12 | 197 to 199 °C
99 | Cc1nnc2n1-c1ccccc1C(c1ccccc1Cl)OC2C (centres undefined) | 176 to 178 °C
